Source: patent US9566265B2, “Carbazole compounds and therapeutic uses of the compounds” (Incuron, LLC, priority 2008, dated 2017)
Values after ≈ are worked out from the molar mass of the structure shown. Read-outs that look alike come from different tables or passages of the source.

How the values were obtained:
C. krusei = experiment: in vitro susceptibility CLSI M27A3, MIC; type: cell-based; settings: Pichia kudriavzevii, ATCC6258; strain ATCC 6258, WT, Susceptible (naturally fluconazole resistant); read-out: MIC* (48 hs)
C. guilliermondii = experiment: in vitro susceptibility CLSI M27A3, MIC; type: cell-based; settings: Meyerozyma guilliermondii, strain ATCC6260, WT, Echinocandin cross-reduced susceptibility
Text: (§1) (12): 1 C. orthopsilosis (981224), 1 C. metapsilosis (2006-113), C. parapsilosis (ATCC 22019 CLSI control), and C. guilliermondii (ATCC6260) (13).

C. metapsilosis = experiment: in vitro susceptibility CLSI M27A3, MIC; type: cell-based; settings: Lodderomyces metapsilosis, strain 2006-113, WT, Echinocandin cross-reduced susceptibility
Text: as §1

C. orthopsilosis = experiment: in vitro susceptibility CLSI M27A3, MIC; type: cell-based; settings: Lodderomyces orthopsilosis, strain 981224, WT, Echinocandin cross-reduced susceptibility
Text: as §1

C. parapsilosis = experiment: in vitro susceptibility CLSI M27A3, MIC; type: cell-based; settings: Lodderomyces parapsilosis, ATCC22019, strain ATCC 22019, WT, Echinocandin cross-reduced susceptibility
Text: as §1

Bacillus subtilis = experiment: antibacterial cytotoxicity assay, gram(+) bacteria (OD600); type: cell-based; settings: B. subtilis, 48 hours, over a range of potencies; FIG. 13B
Procedure: In vitro test to evaluate the effect of carbazole compounds on gram(-) and gram(+) bacteria. Two days prior to the start of the cytotoxicity assay, inoculate DH5-α and B. subtilis into 1 ml of corresponding media from glycerol stocks. Allow to grow during the course of the day at 37° C. with shaking. Streak each bacteria on the appropriate agar plates using a sterile inoculation loop and allow to grow overnight at 37° C. in the bacteria incubator. Using a sterile inoculation loop, pick a single colony of bacteria and inoculate 5 ml of the corresponding media in a 14 ml snap cap tube. Grow overnight ( 16 h) at 37° C. with shaking. […] Dilute 5 ml cultures of DH5-α and B. subtilis to an OD600 nm of 0.002, which corresponds to about 2×10^6 cells/ml in a volume sufficient for the experiment (dependent on the number of plates). Plate out 50 μl into each well of X 96-well plates (X=# plates needed for a given experiment). […] Chemicals for testing are prepared by dilution of stock solutions in LB Broth or Nutrient Broth for DH5-α and B. subtilis studies, respectively. Cells are treated with the final chemical concentrations presented in the scheme below (Table 2). Stock solutions are made up in DMSO. […] However, this concentration is dependent on the solubility of a given chemical and actual stock concentrations must be noted at time of experiment. Each library chemical to be tested requires 2 rows of a 96-well plate, thus 4 chemicals ([…]) can be tested in one plate simultaneously. In addition to test chemicals, each plate should include positive and negative controls. As positive control, ampicillin is used at 100 μg/ml. […] Dilutions of chemicals to be added to the plate are made up as 2× concentrations in appropriate bacteria media and added to corresponding wells in a volume of 50 μl. […] This process is repeated until all 10 2× doses are prepared. […] Following the addition of carbazole compounds to 96-well plates containing bacteria, plates are transferred to the 37° C. bacteria incubator for 48 hours. After the incubation, the OD600 mm for each well of the 96-well plates will be measured. […] The % DMSO control is plotted vs compound concentration to generate sigmoid shaped curves. After three runs are complete, the raw data for all three runs is used for IC50 calculations.

bacteria = experiment: antibacterial cytotoxicity assay, comparison with ampicillin control; type: cell-based
Procedure: In particular, the effect of carbazole compounds of the present invention on gram positive (Bacillus subtilis) and gram negative (DH5-α) bacteria was determined by the following procedure, and is summarized in FIGS. 13A and 13B.
Each library chemical to be tested requires 2 rows of a 96-well plate, thus 4 chemicals (e.g. W, X, Y, Z) can be tested in one plate simultaneously. In addition to test chemicals, each plate should include positive and negative controls. As positive control, ampicillin is used at 100 μg/ml. As a negative control, DMSO is used in an amount equal to the highest volume of test compound used (˜0.25% DMSO for 50 μM).
Besides a positive control added in one concentration on each plate, the positive control of ampicillin is added to each assay run in a full concentration range (3 fold dilutions) to ensure proper and robust assay performance (estimated by comparison of dose response curves among runs).
The average OD600 nm of the test compound solutions are compared to that of the DMSO control by dividing the average OD600 nm of the test solution by that of the DMSO control and multiplying by 100 to produce the % DMSO control (i.e. % cytotoxicity). The % DMSO control is plotted vs compound concentration to generate sigmoid shaped curves. After three runs are complete, the raw data for all three runs is used for IC50 calculations.

[1] = tested on: HCT-116, DLD1, Caki1 and MDA-MB-231 tumors; experiment: various human tumour xenografts sc; type: in vivo, nude or SCID mice; settings: tumor cells inoculated as a cell suspension
Procedure: (§2) In this study, the antitumor effect and toxicity of the three carbazoles against HCT-8 and HT29 colon cancer tumors were compared with treatment beginning when the tumor size reached 150-200 mg (about 7 days after tumor transplantation).

[2] = tested on: human HCT-8 ileocecal adenocarcinoma xenografts
Procedure: as §2
Eight to twelve-week-old female athymic nude mice (nu/nu, body weight 22-25 g) were obtained from Harlan Sprague Dawley Inc. (Indianapolis, Ind.) and maintained at five mice/cage with water and food ad libitum according to an institutionally approved animal protocol.
Human ileocecal adenocarcinoma HCT-8 and colon adenocarcinoma HT-29 xenografts were used. The xenografts were initially established by injecting s.c 10^6 cultured cells and tumors were passed several generations by transplanting about 50 mg non-necrotic tumor (2-3 pieces) via a trocar from the passage tumors when the tumors reach to 1-1.5 g.
Treatment was initiated 7 days after tumor transplantation when the tumors reached 150-200 mg. The mice in the control group received the vehicle (0.2% hydroxypropylmethylcellulose) at 200 μl per 20 g mouse body weight (same as the treatment groups). Five mice were used for each experimental group with 10 tumors (1 tumor each in the left and right side flanks).
Two axes (mm) of tumor (L, longest axis; W, shortest axis) were measured with the aid of a Vernier caliper. Tumor weight (mg) was estimated using a formula: tumor weight=½ (L×W2). Tumor measurements were taken daily at the same time as drug treatment and 3-4 times a week of post therapy.
The kinetics of drug-induced toxicities (body weight loss, diarrhea, and lethality) were determined daily for the first 10 days after treatment and every two days thereafter.
Antitumor activity was assessed by maximum tumor growth inhibition (MTRI) which is the mean tumor weight of treated group (MTWTG) compared with untreated control group (MTWCG) at the same time point (MTRI=MTWTG−MTWCG)÷MTWCG×100%). The tumor doubling time (TDT) was defined as the mean time for the tumor to reach twice its initial weight. Tumor response was expressed as partial tumor response (PR) when tumor weight was reduced at least 50% of the initial tumor size and complete tumor response (CR) was defined as the inability to detect tumor upon palpation at the initial site of tumor appearance.

in vivo = settings: nude, mouse, po
Procedure: Drug doses and schedule. […] Treatment was initiated 7 days after tumor transplantation when the tumors reached 150-200 mg. The mice in the control group received the vehicle (0.2% hydroxypropylmethylcellulose) at 200 μl per 20 g mouse body weight (same as the treatment groups). Five mice were used for each experimental group with 10 tumors (1 tumor each in the left and right side flanks).
Maximum Tolerated Dose (MTD) and toxicity evaluation. […] The kinetics of drug-induced toxicities (body weight loss, diarrhea, and lethality) were determined daily for the first 10 days after treatment and every two days thereafter.

A. fumigatus = experiment: in vitro susceptibility CLSI M38A2, MIC; settings: Aspergillus fumigatus
Text: (§3) Eight Aspergillus spp. strains were used throughout the study. Six A. fumigatus, one A. flavus and one A. terreus also were used. The A. fumigatus group included two itraconazole-resistant strains (RIT13 and RIT5 strains) (1), one triazole cross-resistant strain (MUT10) (2, 3), one echinocandin cross-resistant strain (EMFRS678P) (4), and 2 wild type susceptible isolates (R21 and ATCC13073).

A. flavus = experiment: in vitro susceptibility CLSI M38A2, MIC; settings: Aspergillus flavus
Text: as §3

In the case of `CCN(CC)CCn1c2ccc3c(c2c2c4c(ccc21)C(=O)CC4)CCC3=O` [Example 15], the MIC (C. krusei) is reported as 0.66 µM (≈ 0.247 µg/mL), the MIC (C. guilliermondii; read-out: MIC* (24 hs)) is reported as 0.08 µM (≈ 0.03 µg/mL) and the MIC (C. guilliermondii; read-out: MIC* (48 hs)) is reported as 0.16 µM (≈ 0.0599 µg/mL). The MIC (C. metapsilosis; read-out: MIC* (24 hs)) was 0.16 µM (≈ 0.0599 µg/mL), the MIC (C. metapsilosis; read-out: MIC* (48 hs)) was 0.16 µM (≈ 0.0599 µg/mL) and the MIC (C. orthopsilosis; read-out: MIC* (24 hs)) was 0.16 µM (≈ 0.0599 µg/mL). For the same compound, the MIC (C. orthopsilosis; read-out: MIC* (48 hs)) was 0.16 µM (≈ 0.0599 µg/mL), the MIC (C. parapsilosis; read-out: MIC* (24 hs)) was 0.08 µM (≈ 0.03 µg/mL) and the MIC (C. parapsilosis; read-out: MIC* (48 hs)) was 0.08 µM (≈ 0.03 µg/mL). For the same compound, the “antibacterial effect” value (Bacillus subtilis) was “antibacterial effect”, the “effectiveness against bacteria compared with the ampicillin control” value (bacteria) was “more effective” and the “antitumor efficacy” value [1] was “antitumor efficacy”. For the same compound, the “Antitumor Activity MTGI (%)” value ([2]; p.o. at MTD, 5 days on/2 days off per week, Example 15 5, Example 7 30, Example 13 25 mg/kg/d) was 40.0 ± 18.6%, the “Toxicity (%) lethality” value ([2]; same) was 0% and the “CR (%)” value ([2]; same, complete tumor response) was 0%. For the same compound, the “Toxicity (%) MWL” value ([2]; same, maximum weight loss of pretreatment body weight) was 10.0 ± 3.8%, the “PR (%)” value ([2]; same, partial tumor response) was 0% and the “Antitumor Activity TDT” value ([2]; same, tumor doubling time) was 7.5 ± 3.5 days. For the same compound, the “delay of tumor growth compared to the vehicle control (double time 4.8 days)” value ([2]; text b677) was 57%, the MTD at 4 weeks (in vivo) was 5 mg/kg/day and the MIC (A. fumigatus; ATCC13073, read-out: MIC* (24 hs), strain ATCC13073, WT, Susceptible) was 2.56 µM (≈ 0.959 µg/mL). For the same compound, the MIC (A. fumigatus; ATCC13073, read-out: MIC* (48 hs), strain ATCC13073, WT, Susceptible) was 5.13 µM (≈ 1.92 µg/mL), the MIC (A. fumigatus; read-out: 24 hs MIC Geom. Means, A. fumigatus strains) was 1.59 µM (≈ 0.595 µg/mL) and the MIC (A. fumigatus; read-out: MIC* (24 hs), strain EMFRS678P, Fks1pS678P, Echinocandin cross-resistant) was 1.28 µM (≈ 0.479 µg/mL). It also gave an MIC (A. fumigatus; read-out: MIC* (24 hs), strain MUT10, Cyp51Ap G138C, Triazole cross resistant) of 0.66 µM (≈ 0.247 µg/mL), an MIC (A. fumigatus; read-out: MIC* (24 hs), strain R21, WT, Susceptible) of 1.28 µM (≈ 0.479 µg/mL) and an MIC (A. fumigatus; read-out: MIC* (24 hs), strain RIT5, Itraconazole resistant) of 0.66 µM (≈ 0.247 µg/mL). For the same compound, the MIC (A. fumigatus; read-out: MIC* (24 hs), strain RIT13, Itraconazole resistant) was 1.61 µM (≈ 0.603 µg/mL), the MIC (A. fumigatus; read-out: MIC* (48 hs), strain EMFRS678P, Fks1pS678P, Echinocandin cross-resistant) was 2.56 µM (≈ 0.959 µg/mL) and the MIC (A. fumigatus; read-out: MIC* (48 hs), strain MUT10, Cyp51Ap G138C, Triazole cross resistant) was 1.28 µM (≈ 0.479 µg/mL). For the same compound, the MIC (A. fumigatus; read-out: MIC* (48 hs), strain R21, WT, Susceptible) was 2.56 µM (≈ 0.959 µg/mL), the MIC (A. fumigatus; read-out: MIC* (48 hs), strain RIT5, Itraconazole resistant) was 1.28 µM (≈ 0.479 µg/mL) and the MIC (A. fumigatus; read-out: MIC* (48 hs), strain RIT13, Itraconazole resistant) was 1.28 µM (≈ 0.479 µg/mL). It also gave an MIC (A. flavus; read-out: MIC* (24 hs)) of 0.33 µM (≈ 0.124 µg/mL) and an MIC (A. flavus; read-out: MIC* (48 hs)) of 0.33 µM (≈ 0.124 µg/mL).
